Legend:
[1] = tested on: Tobacco Calli cells transformed with the Hygromycin B phosphotransferase gene; experiment: LD 50 for resistant cells; conditions: for LD 50 for different impurities for resistant cells: isolated impurities added to media
resistant cells = conditions: comparison between batches / impurities
293 cell = experiment: LD 50 hygromycin B concentration for sensitive cells; format: cell-based; conditions: sensitive 293 cell
Escherichia Coli = experiment: as above; format: cell-based
Fungi cell = experiment: as above; format: cell-based
[2] = tested on: 293 cells transformed with the Hygromycin B phosphotransferase gene; experiment: LD 50 for resistant cells; conditions: resistant 293 cells; for LD 50 for different impurities for resistant cells: isolated impurities added to media
Tobacco Calli cells = experiment: LD 50 hygromycin B concentration for sensitive cells; format: cell-based

Molecule | LD 50 hygromycin B concentration for resistant cells ([1]; hygromycin B batches) [µg/mL] | toxicity to resistant cells (in words) (resistant cells) | LD 50 hygromycin B concentration for sensitive cells (293 cell) [µg/mL] | LD 50 hygromycin B concentration for sensitive cells (Escherichia Coli) [µg/mL] | LD 50 hygromycin B concentration for sensitive cells (Fungi cell) [µg/mL] | LD 50 hygromycin B concentration for resistant cells ([2]; hygromycin B batches) [µg/mL] | LD 50 hygromycin B concentration for sensitive cells (Tobacco Calli cells) [µg/mL] | LD 50 for different impurities for resistant cells [1] [µg/mL] | LD 50 for different impurities for resistant cells [2] [µg/mL]
CN[C@H]1C[C@@H](N)[C@H](O)[C@@H](O[C@@H]2O[C@H](CO)[C@H](O)[C@@H]3OC4(O[C@H]23)O[C@H]([C@@H](N)CO)[C@H](O)[C@H](O)[C@H]4O)[C@@H]1O (some centres unmarked) [Batch T-94, hygromycin B] | 490 | lower toxicity to resistant cells | 8.5 | 8.2 | 14.2 | 394 | 4.7 | – | –
NC1CC(N)C(O)C(OCC(O)C(O)C(O)C(O)CO)C1O (centres unmarked) [Impurity D] | – | – | – | – | – | – | – | 0.5 | 1.7
Destomic acid [Impurity A] | – | – | – | – | – | – | – | 193 | 240

Source: patent publication US20120231448A1, “LOW CELL TOXICITY […]” (priority 2011, published 2012)
